Columns and labels:
SHP2 = SHP2 (Homo sapiens (Human), UniProt Q06124); experiment: Assay for the inhibitory effect on the SHP2 enzyme (DiFMUP substrate, fluorescence); format: biochemical; details: SHP2 activated with SHP-2 activated peptide; DiFMUP 10 μM; read-out: Enzymatic Effect (IC50 on SHP2)
Description: 1× Assay buffer was prepared. A compound to be tested was diluted with DMSO solvent to a stock concentration of 10 mM. The compound to be tested was first diluted to an intermediate concentration of 1000 μM and then further diluted in a 3-fold gradient using DMSO. Therefore, the intermediate gradient dilution concentration of the compound to be tested was: 1000 μM, 3-fold dilution, 11 gradients. 100 nL of each concentration of the compound in the 384-well LDV echo plate was transferred to a new 384-well ELISA plate (assay plate) (corning, Cat #4514) by the Echo550 instrument. The final concentration of the compound to be tested was 10 μM, 3-fold dilution, 11 gradients in duplicate after 10 μL of the reaction reagent was added. The final DMSO concentration was 1%. For both negative and positive control wells, 100 nL DMSO would be transferred.
A mixed liquor of 2× working SHP2 reagent (0.4 nM) and 0.5 μM SHP-2 activated peptide (BPS bioscience #79319-2) was prepared with 1× enzyme buffer. After the above-mixed liquor was incubated at 25° C. for 60 minutes, 5 μL of activated SHP2 kinase solution was transferred with a pipettor to the compound wells and the Max control wells (Corning, #4514) of the plate. Then 5 μL of 1× kinase buffer was transferred to the Min control wells. The plate was centrifuged at 1000 rpm for 30 seconds, sealed, and incubated in a 25° C. constant-temperature incubator for 30 minutes. A substrate solution of DiFMUP (#D6567, Invitrogen™) was prepared with 1× kinase buffer, and its concentration should be 2 times as the final concentration of the assay (DiFMUP final concentration: 10 μM). 5 μL of the prepared substrate solution was transferred with an electric pipettor into each well of the ELISA plate to start the reaction. The plate was centrifuged at 1000 rpm for 30 seconds, sealed, and incubated in a 25° C. constant-temperature incubator for 60 minutes. Read the plate at the excitation/emission wavelength of 358/455 nm after the ELISA plate was placed on the Spark machine.
The RLU values were collected from Spark and the inhibition rate was calculated with the RLU values. Inhibition rate=(maximum value-sample RLU)/(maximum value-minimum value)*100. “Minimum value” was referred to the RLU of the enzyme-free control, and “maximum value” was referred to the RLU of the DMSO control. The data were fit by using the XLFit Excel module (version 5.4.0.8) to obtain IC50 values, and the results are shown in Table 1.

[1] = system: human acute myeloid leukemia MV-4-11 cells; experiment: In vitro inhibitory effect on the proliferation of MV-4-11 cells (MTT, 72 h); format: cell-based; details: MV4-11, 72 hours exposure
Description: The human acute myeloid leukemia MV-4-11 cells used in the assay were purchased from Shanghai Institutes for Biological Sciences, Chinese Academy of Sciences. The complete culture medium required for cell culture was IMDM (GIBCO Company), which was supplemented with 10% fetal bovine serum (GIBCO Company). Cells were cultured in a 37° C., 5% CO2 incubator. The reagents used in the assay included dimethyl sulfoxide (purchased from Tianjin Kemiou Chemical Reagent Co., Ltd.), and MTT (Shanghai Topbiochem Co., Ltd., CAS. NO. 298-93-1). The test substance was sealed and stored at 4° C.
Dimethyl sulfoxide was used as the solvent to fully dissolve the test substance and prepare a stock solution with a concentration of 5×10^−2 mol/L. The stock solution was stored at −20° C. A complete culture medium was used as the diluent, and the test substance was diluted to different concentrations in a gradient for later use. 100 µL/well (2×10^4 cells/well) of a suspension of MV-4-11 cells in the complete culture medium was added to a 96-well culture plate. 100 μL/well of the corresponding test substances at different concentrations were added respectively. 8 concentrations were set for each test substance, and 3 duplicate wells were set for each concentration. The plate was cultured in a 37° C., 5% CO2 incubator. 20 μL/well of MTT was added after 72 hours of exposure to the test substances. The plate was cultured for 4 hours in a 37° C., 5% CO2 incubator. The supernatant was discarded, and 150 μL/well of dimethyl sulfoxide was added. The plate contents were oscillated and mixed evenly. The microplate reader was used to detect the OD value at a wavelength of 550 nm. The well only containing the cell suspension without test substance was a control well, and the well only containing the complete culture medium was a blank well. The inhibition rate of the cell growth was calculated with the following formula: • Inhibition rate=(ODcontrol well-ODtest well)/(ODcontrol well-ODblank well)*100%. According to the inhibition rates at each concentration, SPSS software was used to calculate the half inhibitory concentration IC50 value.

[2] = Mouse pharmacokinetic assay (intragastric administration, plasma HPLC-MS/MS); format: in vivo; details: ICR mice
Description: ICR mice were intragastrically administered with the compound at 10 mg/kg or 20 mg/kg. At different time points (0.25 h, 0.5 h, 1 h, 2 h, 4 h, 8 h, 24 h) after administration, the mice blood was collected from the orbit. The collected whole blood was anticoagulated with heparin sodium and centrifuged at 3000 g to obtain mouse plasma samples. Methanol was added to precipitate proteins. The drug concentration in the mouse plasma after administration was determined by the HPLC-MS/MS method. A drug concentration-time curve was plotted and the pharmacokinetic parameters were calculated. The pharmacokinetic behavior in mice after the compound administration was described by means of non-compartment model statistical moment parameters.

hERG channel = hERG channel (Homo sapiens (Human), UniProt Q12809); experiment: hERG assay, manual whole-cell patch clamp in CHO-K1 cell line stably expressing the hERG channel; format: cell-based
Chain of hERG channel (Q12809 whole entry): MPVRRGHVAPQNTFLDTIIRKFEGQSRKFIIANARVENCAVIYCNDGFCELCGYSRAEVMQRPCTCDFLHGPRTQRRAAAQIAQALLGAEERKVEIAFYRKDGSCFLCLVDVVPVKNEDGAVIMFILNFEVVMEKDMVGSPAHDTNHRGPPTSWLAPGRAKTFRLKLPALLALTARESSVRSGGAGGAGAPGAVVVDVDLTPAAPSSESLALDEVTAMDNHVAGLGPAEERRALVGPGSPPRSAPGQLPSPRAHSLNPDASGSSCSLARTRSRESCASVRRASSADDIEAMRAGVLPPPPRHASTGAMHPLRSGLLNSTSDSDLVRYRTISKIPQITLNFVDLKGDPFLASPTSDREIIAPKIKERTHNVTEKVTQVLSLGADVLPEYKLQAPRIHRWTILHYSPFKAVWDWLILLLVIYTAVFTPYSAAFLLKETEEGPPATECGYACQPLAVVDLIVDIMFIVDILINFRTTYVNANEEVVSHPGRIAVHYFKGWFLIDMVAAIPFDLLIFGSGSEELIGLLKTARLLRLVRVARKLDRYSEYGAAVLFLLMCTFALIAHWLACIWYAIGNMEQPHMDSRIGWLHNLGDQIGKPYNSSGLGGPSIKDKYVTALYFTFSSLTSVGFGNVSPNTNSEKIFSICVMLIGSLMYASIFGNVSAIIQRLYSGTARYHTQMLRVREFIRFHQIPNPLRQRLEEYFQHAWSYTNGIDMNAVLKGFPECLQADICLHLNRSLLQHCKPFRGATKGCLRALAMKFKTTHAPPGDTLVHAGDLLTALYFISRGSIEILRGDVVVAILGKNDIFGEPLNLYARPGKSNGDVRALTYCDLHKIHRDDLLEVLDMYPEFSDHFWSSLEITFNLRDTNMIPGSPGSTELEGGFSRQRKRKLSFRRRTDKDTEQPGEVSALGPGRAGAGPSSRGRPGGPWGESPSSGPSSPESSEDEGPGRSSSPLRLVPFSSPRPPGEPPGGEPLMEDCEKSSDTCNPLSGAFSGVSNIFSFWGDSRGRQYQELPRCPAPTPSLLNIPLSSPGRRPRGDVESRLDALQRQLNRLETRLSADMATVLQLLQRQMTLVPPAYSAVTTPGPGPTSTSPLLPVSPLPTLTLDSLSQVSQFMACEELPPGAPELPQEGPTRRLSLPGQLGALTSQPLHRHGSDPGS
Description: This assay included the following aspects: • A manual patch clamp technique was used to record the hERG current in the CHO-K1 cell line stably expressing the hERG channel; • The inhibition rate at each concentration was calculated based on the hERG tail current; • Each compound was tested at 5 concentrations to calculate the IC50 value; • Three cells were tested for each concentration; • One positive control drug was set.
HERG currents were recorded using the whole-cell patch-clamp technique. The cell suspension was added to the cell tank and placed on the upright microscope stage. After the cell adherence, the cells were perfused with extracellular fluid at a flow rate of 1-2 mL/min. The glass microelectrode was drawn in two steps by a micropipette puller, and its resistance value in water was 2-5 MΩ. After establishing the whole-cell recording, the clamp potential was maintained at −80 mV. The hERG tail current was elicited by applying a depolarizing voltage to +60 mV upon the voltage stimulation and then repolarizing to −50 mV. All recordings were made after the current stabilization. Extracellular perfusion administration started from a low concentration, and each concentration lasted for 5-10 minutes until the current was stable, and then proceeded to the next concentration.
The half inhibitory concentration (ICSO) of the test compound was derived from the best fit of the Logistic equation.

[3] = system: human lung adenocarcinoma NCI-H441 cells; experiment: In vitro inhibitory effect on the proliferation of NCI-H441 cells (3D CellTiter Glo, 5 days); format: cell-based; details: 120 h, 3D cell viability
Description: The human lung adenocarcinoma cell NCI-H441 used in the assay was purchased from ATCC. The complete culture medium required for cell culture was RPMI 1640 Medium (GIBCO Company), which was supplemented with 10% fetal bovine serum (GIBCO Company). Cells were cultured in a 37° C., 5% CO2 incubator. The reagents used in the assay included dimethyl sulfoxide (purchased from Sigma), a 3D Cell Viability assay kit (purchased from Promega), and the control substance TW-45 used in the assay was obtained homemade. The test substance was sealed and stored at 4° C.
Dimethyl sulfoxide was used as the solvent to fully dissolve the test substance and prepare a stock solution with a concentration of 1×10^−2 mol/L. The stock solution was stored at −20° C. A complete culture medium was used as the diluent, and the test substance was diluted to different concentrations in gradient for later use (the final test concentration was 10000, 3333, 1111, 370, 123, 41, 13.7, 4.5, 1.5, and 0.5 nM). Cells were cultured in a 37° C., 5% CO2 incubator for 5 days. Detection was made on the fifth day. 30 μL of reagent (Celltiter Glo Assay Kit-3D) was added to each well and the plate was shaken on a plate oscillator (protected from light) for 30 minutes. The plate was incubated at room temperature (protected from light) for 120 minutes. Chemiluminescence values were recorded with a Multiplate reader. […]

[4] = Mouse tolerance assay (once daily for 7 consecutive days); format: in vivo; details: female ICR mice
Description: • Assay animals: ICR mice, female, 5 weeks old • Solvent: 2% DMSO+98% (0.5% MC), treated by sufficient vortex and sonicated to obtain a uniform suspension • Assay method: Female ICR mice were divided into 4 groups according to weight balance, with 5 mice in each group. The administration doses were 50 mg/kg and 200 mg/kg respectively. The compound was administrated once daily for 7 consecutive days.

[5] = mouse, po, intragastric, 20 mg/kg, plasma

Structure (SMILES)	IC50 (SHP2)	IC50 [1]	also measured
CC(=O)c1nc(Sc2cccc(-c3ncco3)c2Cl)cnc1N1CCC2(CC1)Oc1ccccc1[C@H]2N [Compound 8]	≤ 20 nM	≤ 20 nM	
COC(=O)c1nc(Sc2cccc(-c3ccn(C)n3)c2Cl)cnc1N1CCC2(CC1)Cc1ccccc1[C@H]2N [Compound 19]		≤ 20 nM	
CC(=O)c1nc(Sc2ccnc(-c3ncco3)n2)c(N)nc1N1CCC2(CC1)Oc1ccccc1[C@H]2N [Compound 24, (R)-1-(5-amino-3-(3-amino-3H-spiro[benzofuran-2,4′-piperidine]-1′-yl)-6-((2-(oxazole-2-yl)pyrimidine-4-yl)sulfanyl)pyrazine-2-yl)ethanone]	≤ 20 nM		
[2H][C@@]1(N)c2ccccc2OC12CCN(c1nc(N)c(Sc3ccnc(N)n3)nc1C(C)=O)CC2 [Compound 57]	≤ 20 nM	≤ 20 nM	
[2H][C@@]1(N)c2ccccc2OC12CCN(c1nc(N)c(Sc3ccnc(N)c3Cl)nc1C(=O)OC)CC2 [Compound 59]	≤ 20 nM	≤ 20 nM	
CC(=O)c1nc(Sc2ccnc(N)c2Cl)c(N)nc1N1CCC2(CC1)Oc1ccccc1[C@H]2N [Compound 62]	≤ 20 nM		IC50 [3]: 20 to 50 nM
Nc1nc(N2CCC3(CC2)Oc2ccccc2[C@H]3N)cnc1Sc1ccnc(N)c1Cl [TW-45, reference compound]			days of administration after which death appeared ([4]; 200 mg/kg once daily): 4 days; death by the 7th day (in words) ([4]; 200 mg/kg once daily): all animals of the positive control had died by the 7th day; MTD at 7 days ([4]; mouse, in vivo, once daily for 7 days, read-out: mouse maximum tolerated dose MTD): < 200 mg/kg

Second part, led by results:

IC50 (SHP2)	IC50 [1]	Structure (SMILES)	also measured
≤ 20 nM	≤ 20 nM	CC(=O)c1nc(Sc2cccc(-c3ncco3)c2Cl)c(N)nc1N1CCC2(CC1)Oc1ccccc1[C@H]2N [Compound 1, (R)-1-(5-amino-3-(3-amino-3H-spiro[benzofuran-2,4′-piperidine]-1′-yl)-6-((2-chloro-3-(oxazole-2-yl)phenyl)sulfanyl)pyrazine-2-yl)ethanone]	exposure and absorption in mice (in words) ([2]; intragastric administration): relatively high exposure in mice and both were well absorbed in vivo; Cmax [2, 5]: 2490 ng/mL; Tmax [2, 5]: 4 h; AUC(0-t) ([2]; mouse, po, intragastric, 20 mg/kg, plasma, read-out: AUC0-24 h): 16900 ng·h/mL; IC50 (hERG channel; CHO-K1 stable cell line, hERG tail current, 5 concentrations): > 10000 nM; inhibitory effect on the hERG channel (in words) (hERG channel; within the detection concentration range of the assay): no obvious inhibitory effect on the hERG channel
≤ 20 nM	≤ 20 nM	COC(=O)c1nc(Sc2cccc(-c3ncco3)c2Cl)c(N)nc1N1CCC2(CC1)Oc1ccccc1[C@H]2N [Compound 16, (R)-5-amino-3-(3-amino-3H-spiro[benzofuran-2,4′-piperidine]-1′-yl)-6-((2-chloro-3-(oxazole-2-yl)phenyl)sulfanyl)pyrazine-2-carboxylic acid methyl ester]	
≤ 20 nM		Nc1nc(N2CCC3(CC2)Oc2ccccc2[C@H]3N)c(C2COC2)nc1Sc1cccc(-c2ncco2)c1Cl [Compound 21, (R)-1′-(6-amino-5-((2-chloro-3-(oxazole-2-yl)phenyl)sulfanyl)-3-(oxetane-3-yl)pyrazine-2-yl)-3H-spiro[benzofuran-2,4′-piperidine]-3-amine]	
≤ 20 nM		C=Cc1nc(Sc2cccc(-c3ncco3)c2Cl)c(N)nc1N1CCC2(CC1)Oc1ccccc1[C@H]2N [Compound 22]	
≤ 20 nM		Nc1nc(N2CCC3(CC2)Oc2ccccc2[C@H]3N)c(F)nc1Sc1cccc(-c2ncco2)c1Cl [Compound 23, (R)-1′-(6-amino-5-((2-chloro-3-(oxazole-2-yl)phenyl)sulfanyl)-3-fluoropyrazine-2-yl)-3H-spiro[benzofuran-2,4′-piperidine]-3-amine]	
≤ 20 nM		COC(=O)c1nc(Sc2ccnc(N)c2Cl)c(N)nc1N1CCC2(CC1)Oc1ccccc1[C@H]2N [Compound 58]	
≤ 20 nM		[2H][C@@]1(N)c2ccccc2OC12CCN(c1nc(N)c(Sc3cccc(-c4ncco4)c3Cl)nc1C(C)=O)CC2 [Compound 60]	
